# Laboratory results: patent US20170315126A1, “METHOD FOR SCREENING COMPOUND SPECIFICALLY SUPPRESSING FORMATION OF CAVEOLAE OF CANCER CELLS, SCREENING KIT, VECTOR AND TRANSFORMANT TO BE USED IN KIT, AND METHOD FOR SELECTING PATIENT FOR WHOM MOLECULARLY TARGETED DRUG IS INDICATED” (NATIONAL UNIVERSITY CORPORATION NAGOYA INSTITUTE OF …, priority 2014, published 2017)
# Where two headings read alike, the source gives them in different places.
# B1: human Cavin-1 (other, UniProt Q6NZI2 1-390, looked up)
# chain: MEDPTLYIVERPLPGYPDAEAPEPSSAGAQAAEEPSGAGSEELIKSDQVNGVLVLSLLDKIIGAVDQIQLTQAQLEERQAEMEGAVQSIQGELSKLGKAHATTSNTVSKLLEKVRKVSVNVKTVRGSLERQAGQIKKLEVNEAELLRRRNFKVMIYQDEVKLPAKLSISKSLKESEALPEKEGEELGEGERPEEDAAALELSSDEAVEVEEVIEESRAERIKRSGLRRVDDFKKAFSKEKMEKTKVRTRENLEKTRLKTKENLEKTRHTLEKRMNKLGTRLVPAERREKLKTSRDKLRKSFTPDHVVYARSKTAVYKVPPFTFHVKKIREGQVEVLKATEMVEVGADDDEGGAERGEAGDLRRGSSPDVHALLEITEESDAVLVDKSDSD
# notes: whole, on cells; Intracellular protein; endogenous in cell extracts or full length expressed from pCMVpuro-Cavin-1 in COS-7 cells; also called endogenous Cavin-1; pCMVpuro-Cavin-1-WT
# Assays:
# NCI-H1975 cells = conditions: cited from earlier work
# PC-9 cells = conditions: cited from earlier work
# PC-9 and NCI-H1975 = assay: Cell proliferation by colorimetry (cell counting kit-8) after siRNA transfection; assay type: cell-based, human; conditions: 120 hours after transfection
# Description: Transfection of the siRNA (20 nM each) was conducted in accordance with the manufacturer's instruction manual using lipofectamine RNAiMAX (manufactured by Invitrogen). Cells were recovered 72 hours after transfection for Western blotting analysis. Cells were also recovered 120 hours after transfection for analysis by colorimetry to measure cell proliferation.
# siControl or siROR1, siCavin-1, or siCAV1 was transfected against the PC-9 or NCI-H1975 cell line to investigate the effects of silencing of ROR1, Cavin-1, and CAV1 on cell proliferation. A reaction was conducted using a cell counting kit-8 (Dojindo) 120 hours after transfection, the absorbance was measured by a plate reader, and colorimetry was conducted. Furthermore, this experiment was conducted three separate times, and the average values were graphed.
# CAV1 = assay: Western blotting of CAV1 expression after siRNA transfection in pulmonary adenocarcinoma cell lines; assay type: cell-based, human; conditions: siRNA 20 nM
# Description: Western blotting analysis and IP-WB analysis were conducted by the standard methods using an Immobilon-P filter (manufactured by Millipore Corp.) and an enhanced chemiluminescence system (manufactured by GE Healthcare Inc.). pCMVpuro-Cavin-1-WT was coexpressed with various ROR1 expression constructs such as the wild type (WT), TKΔ473-564 (TKΔ1), TK564-655 (TKΔ2), TKΔ655-746 (TKΔ3), TKΔ473-655 (TKΔ1+×2), TKΔ564-746 (TKΔ2+Δ3), and TKΔ473-746 (TKA1+Δ2+A3) to identify the binding site of ROR1 and Cavin-1. pCMVpuro-CAV1-WT was coexpressed with ROR1 expression constructs such as the wild type (WT), TKΔ473-564 (TKΔ1), TKΔ564-655 (TKΔ2), TKΔ655-746 (TKΔ3), ST1Δ748-782 (ΔST1), PΔ784-851 (ΔP), and ST2Δ853 to 876 (ΔST2) to identify the binding site of ROR1 and CAV1. For these, the cells were recovered 24 hours after transfection by Fugene6 (Promega) using COS-7 cells, and IP-WB analysis was conducted.
# Transfection of the siRNA (20 nM each) was conducted in accordance with the manufacturer's instruction manual using lipofectamine RNAiMAX (manufactured by Invitrogen). […] Cells were also recovered 120 hours after transfection for analysis by colorimetry to measure cell proliferation.
# [1] = biological target: T1, human ROR1 (receptor tyrosine kinase-like orphan receptor 1) (human, UniProt Q01973 30-937); assay: IP-WB of octyl glucoside extracts of NCI-H1975 and SK-LU-1 cells
# T1 construct: whole, on cells; also called endogenous ROR1; ROR1-WT
# [2] = biological target: T1, human ROR1 (receptor tyrosine …); assay: IP-WB of ROR1 constructs coexpressed with CAV1 in COS-7 cells
# Description: For these, the cells were recovered 24 hours after transfection by Fugene6 (Promega) using COS-7 cells, and IP-WB analysis was conducted.
# human Cavin-1 = biological target: B1; assay: IP-WB of NCI-H1975 cell extract 24 hours after transfection of siROR1
# [3] = biological target: T1, human ROR1 (receptor tyrosine …); assay: IP-WB of endogenous proteins in octyl glucoside cell extracts
# [4] = NCI-H1975, 72 hours after transfection
# T1 sequence (Q01973 30-937): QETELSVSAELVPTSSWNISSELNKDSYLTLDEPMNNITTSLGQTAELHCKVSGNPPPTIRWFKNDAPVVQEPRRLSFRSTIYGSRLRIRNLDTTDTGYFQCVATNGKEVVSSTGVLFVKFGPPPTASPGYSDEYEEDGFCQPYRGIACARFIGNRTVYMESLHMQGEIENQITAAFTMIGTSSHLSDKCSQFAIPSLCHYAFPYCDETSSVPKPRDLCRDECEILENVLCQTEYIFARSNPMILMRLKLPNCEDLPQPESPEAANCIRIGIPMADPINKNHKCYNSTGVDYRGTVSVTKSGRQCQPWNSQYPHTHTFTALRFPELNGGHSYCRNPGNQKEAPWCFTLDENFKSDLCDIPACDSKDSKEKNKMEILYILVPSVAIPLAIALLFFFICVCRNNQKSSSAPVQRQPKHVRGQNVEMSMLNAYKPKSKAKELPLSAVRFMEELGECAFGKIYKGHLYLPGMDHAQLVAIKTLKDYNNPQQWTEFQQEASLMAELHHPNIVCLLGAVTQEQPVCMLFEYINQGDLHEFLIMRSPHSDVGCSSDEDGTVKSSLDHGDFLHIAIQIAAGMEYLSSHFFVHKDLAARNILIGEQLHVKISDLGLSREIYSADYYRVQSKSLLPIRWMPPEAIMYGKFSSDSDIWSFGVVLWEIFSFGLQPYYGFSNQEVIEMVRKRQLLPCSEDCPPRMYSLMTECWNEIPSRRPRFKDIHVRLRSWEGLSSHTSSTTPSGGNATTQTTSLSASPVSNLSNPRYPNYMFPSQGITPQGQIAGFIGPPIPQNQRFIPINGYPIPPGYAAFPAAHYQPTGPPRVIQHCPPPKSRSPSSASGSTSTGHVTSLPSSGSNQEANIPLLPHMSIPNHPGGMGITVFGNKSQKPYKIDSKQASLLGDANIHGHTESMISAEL
molecule,measurement,setting,value
"CC#CC(=O)Nc1ccc2ncnc(Nc3cccc(Br)c3)c2c1 [CL-387, 785]",sensitivity of cells to EGFR-TKI,NCI-H1975 cells; NCI-H1975 in the presence of HGF,resistance
"COc1cc2ncnc(Nc3ccc(F)c(Cl)c3)c2cc1OCCCN1CCOCC1 [gefitinib, Gefitinib]",sensitivity of cells to EGFR-TKI,"PC-9 cells; PC-9, no ligand",sensitive
same,sensitivity of cells to EGFR-TKI,PC-9 cells; PC-9 in the presence of HGF,resistance
same,sensitivity of cells to EGFR-TKI,"NCI-H1975 cells; NCI-H1975 (EGFR T790M double mutation), no ligand",resistance
"siCavin-1#1: RNA oligomer for RNAi against human Cavin-1, 5′-CUCCAAGACCGCGGUCUACAA-3′ (SEQ ID No: 18) (listed as RNA, further chemistry not given here)",cell proliferation (colorimetry),PC-9 and NCI-H1975,inhibit cell proliferation
"siCavin-1#2: RNA oligomer for RNAi against human Cavin-1, 5′-CCCGCCGAGCGGCGCGAGAAA-3′ (SEQ ID No: 19) (listed as RNA, further chemistry not given here)",cell proliferation (colorimetry),PC-9 and NCI-H1975,inhibit cell proliferation
"siIGF-IR#1: RNA oligomer for RNAi against human IGF-IR, 5′-GGAAUUGCAUGGUAGCCGAUU-3′ (SEQ ID No: 16) (listed as RNA, further chemistry not given here)",CAV1 expression (Western blot),CAV1; NCI-H358,downregulation of CAV1 was also found
same,CAV1 expression (Western blot),CAV1; [4],downregulate CAV1
"siIGF-IR#2: RNA oligomer for RNAi against human IGF-IR, 5′-CUGACUACAGGGAUCUCAUUU-3′ (SEQ ID No: 17) (listed as RNA, further chemistry not given here)",CAV1 expression (Western blot),CAV1; NCI-H358,downregulation of CAV1 was also found
same,CAV1 expression (Western blot),CAV1; [4],downregulate CAV1
B1,binding result,[1],binds
"human Caveolin 1 (other, UniProt Q03135 2-178, looked up, whole, on cells; Endogenous in cell extracts or full length expressed from pCMVpuro-CAV1 in COS-7 cells; also called CAV1; endogenous CAV1) SGGKYVDSEGHLYTVPIREQGNIYKPNNKAMADELSEKQVYDAHTKEIDLVNRDPKHLNDDVVKIDFEDVIAEPEGTHSFDGIWKASFTTFTVTKYWFYRLLSALFGIPMALIWGIYFAILSFLHIWAVVPCIKSFLIEIQCISRVYSIYVHTVCDPLFEAVGKIFSNVRINLQKEI",binding result,[2],binds
same,binding result,human Cavin-1,binds
"Cavin-2 (other, human, UniProt O95810 2-425, looked up, whole, on cells; Detected with anti-Cavin-2 (Abcam) in IP-WB of cell extracts) GEDAAQAEKFQHPGSDMRQEKPSSPSPMPSSTPSPSLNLGNTEEAIRDNSQVNAVTVLTLLDKLVNMLDAVQENQHKMEQRQISLEGSVKGIQNDLTKLSKYQASTSNTVSKLLEKSRKVSAHTRAVKERMDRQCAQVKRLENNHAQLLRRNHFKVLIFQEENEIPASVFVKQPVSGAVEGKEELPDENKSLEETLHTVDLSSDDDLPHDEEALEDSAEEKVEESRAEKIKRSSLKKVDSLKKAFSRQNIEKKMNKLGTKIVSVERREKIKKSLTSNHQKISSGKSSPFKVSPLTFGRKKVREGESHAENETKSEDLPSSEQMPNDQEEESFAEGHSEASLASALVEGEIAEEAAEKATSRGSNSGMDSNIDLTIVEDEEEESVALEQAQKVRYEGSYALTSEEAERSDGDPVQPAVLQVHQTS",binding result,[3],no binding
